Where a SMILES comes first, the peptide text is derived from it. Where no end group is shown, it is not given here.
How the values were obtained:
Type in all cases: cell-based
MCF7-SNCG cells = test: Microinjection of ANK peptide then nocodazole, mitotic arrest/apoptosis count; settings: ANK peptide microinjected, 0.5 μM nocodazole for 24 hours; versus uninjected
Procedure: (§1) ANK peptide interference with SNCG-BubR1 association in vivo was examined in a stable breast cancer cell line MCF7 expressing SNCG (MCF7-SNCG) and a control SNCG negative cell line (MCF7-Neo). […] Significant numbers of cells survived after treatment with the ANK peptide by microinjection in both cell lines. After microinjection, cells were treated with 0.5 μM nocodazole for 24 hours and the fraction of mitotically arrested cells was counted.
(§2) MCF7-SNCG and MCF-Neo were grown to 80% confluence, split with trypsin and seeded on a 22 mm glass coverslip treated with human fibronectin ([…]) into 60 mm diameter dishes containing cell maintenance medium for 24 hours and utilized for the experiments. In initial experiments ANK peptide (5, 10 or 100 μM) was microinjected. In all further experiment to date, ANK peptide (10 μM), together with goat IgG (1 mg/ml) and fluoroscein isothiocyanate (FITC, 5 mg/ml; Molecular Probes) into the MCF7-SNCG or MCF7-Neo cells under a 40× magnification of phase contrast microscope (Carl Zeiss Inc.) using a pressure injection system (Femtojet, Eppendorf). To exclude the possibility that microinjection might affect cell cycle and proliferation, MCF7-Neo and MCF7-SNCG were microinjected with goat IgG as a control. Injections were done at a constant flow setup by varying the injection pressure Pc between 40-70 units. The microscope stage was kept at 37° C. using thermal control device (Tempcontrol-37-2 Digital). Approximately 25-30 cells were microinjected in each experiment (n=3). Cells were quickly incubated to revive. […]
(§3) For the immunofluorescence experiments, cells were fixed in 0.5% buffered paraformaldehyde for 8 minutes at room temperature. […] Cells were scored by identifying cells containing Alexa Fluor 488 excited at 488 nm, and the emission measured at 500-535 nm; DAPI was excited at 345 nm and the emission was measured at 445 nm. […] Mitotic index was determined as described by Gupta et al. (Oncogene 2003 22:7593-7599) and Inaba et al. Breast Cancer Res. Treat. […]

MCF7-Neo cells [1] = test: as above; settings: MCF7-Neo5 cells, ANK peptide microinjected, nocodazole treated; versus uninjected
Procedure: as §1, §2, §3

SNCG-BubR1 interaction = molecular target: T1, SNCG-BubR1 interaction (Homo sapiens, UniProt O76070); test: Co-immunoprecipitation of SNCG and myc-BubR1 with or without EGFP-ANK in COS7 cells; settings: COS7 cells expressing BubR1, SNCG and EGFP-ANK
T1 construct: expressed in transfected cells; host or cells: COS7
T1 sequence (O76070 whole entry): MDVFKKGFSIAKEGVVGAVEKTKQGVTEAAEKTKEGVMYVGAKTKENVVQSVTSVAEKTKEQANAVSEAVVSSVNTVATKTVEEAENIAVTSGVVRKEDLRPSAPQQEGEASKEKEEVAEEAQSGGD

MCF7-Neo cells [2] = test: Mitotic index and apoptosis by DAPI staining after paclitaxel; settings: neo cells expressing EGFP-ANK versus pEGFP, paclitaxel 18 hours
Procedure: FIG. 7A through D show expression of EGFP-ANK disrupting the SNCG-mediated inhibition of mitotic checkpoint function as measured by microscopy and flow cytometry. The bar graphs show the expression of EGFP-ANK disrupting the SNCG-mediated inhibition of mitotic checkpoint function, using (FIG. 7A) DAPI and (FIG. 7B) anti-phospho-H^3 staining. For graphs of FIGS. 7A and 7B, the cells treated with 0.5 μM paclitaxel for 18 hours or untreated control cells were fixed with 4% paraformaldehyde for 20 minutes at room temperature. In both cases, the cells were then stained with 1 μg/ml of DAPI or 2 μg/ml anti-phospho-H3 primary and Texas Red goat anti-rabbit secondary antibodies (Invitrogen). Green fluorescent cells were identified for positive transfected cells. For each sample, 200-300 cells randomly chosen from 5 different views under a Nikon fluorescent microscope were scored for interphase, mitotic, or apoptotic based upon nuclei morphology. The data shown were derived from three separate transfections (p<0.01). […]
Two days after transfection, cells were exposed to paclitaxel for 18 hours and numbers of mitotic arrested and apoptotic cells were counted after DAPI staining. […] These cells were also probed with rabbit polyclonal anti-phospho-H^3 and the mitotic index was calculated according to the proportion of the number of H^3 stained EGFP positive cells to total EGFP positive cells (FIG. 7B). […]

| Compound | level of mitotically arrested cells (MCF7-SNCG cells) | number of cells undergoing mitotic arrest/apoptosis (MCF7-Neo cells [1]) | myc-BubR1 signal in anti-SNCG IP complex (SNCG-BubR1 interaction) | mitotic index (MCF7-Neo cells [2]) | percentage of apoptotic cells (MCF7-Neo cells [2]) |
| --- | --- | --- | --- | --- | --- |
| CC[C@H](C)[C@H](NC(=O)[C@H](CS)NC(=O)CNC(=O)[C@H](CC(C)C)NC(=O)[C@H](Cc1c[nH]cn1)NC(=O)CNC(=O)[C@H](Cc1c[nH]cn1)NC(=O)[C@H](CCC(N)=O)NC(=O)[C@H](CO)NC(=O)[C@H](C)NC(=O)[C@@H](NC(=O)[C@H](Cc1c[nH]cn1)NC(=O)[C@H](CC(C)C)NC(=O)[C@H](C)NC(=O)[C@H](CO)NC(=O)[C@H](CC(N)=O)NC(=O)CNC(=O)[C@H](CCCCN)NC(C)=O)C(C)C)C(=O)N[C@@H](CCC(N)=O)C(=O)N[C@H](C(=O)N[C@@H](CC(C)C)C(=O)N[C@H](C(=O)N[C@@H](CCCNC(=N)N)C(=O)N[C@@H](Cc1ccc(O)cc1)C(=O)NCC(=O)N[C@@H](C)C(=O)N[C@@H](CC(N)=O)C(=O)N[C@H](C(=O)N[C@H](C(=O)N[C@@H](CCSC)C(=O)N[C@@H](CCC(N)=O)C(=O)N[C@@H](CC(N)=O)C(=O)N[C@@H](Cc1c[nH]cn1)C(=O)NCC(N)=O)[C@@H](C)O)C(C)C)C(C)C)[C@@H](C)O [ANK peptide] (Ac-KGNSALHVASQHGHLGCIQTLVRYGANVTMQNHG-NH2) | significantly (p<0.05) increased | not significantly affected |  |  |  |
| EGFP-ANK: ANK peptide expressed as a fusion protein with its amino-terminal linked to EGFP protein, approximately 37 kDa ({EGFP}-KGNSALHVASQHGHLGCIQTLVRYGANVTMQNHG) |  |  | not detected | did not significantly alter | did not significantly alter |

— patent publication US7897568B2, “Compositions for treatment of cancer” (priority 2006, dated 2011)
